Entries after “also recorded” stand apart in the source; their conditions may differ.

The subject of series [1] is TRAMP (transgenic adenocarcinoma of mouse prostate) mice. Nature of the series: Treatment of TRAMP mice (tumour mass, histology, MRI). The conditions noted are these: for prostate cancer progression in the TRAMP mouse model: administered either alone or in combination with MTA. The class given is in vivo. The procedure: MRI experiments were performed using a 9.4 T 21 cm bore horizontal bore magnet (Magnex Scientific) Varian INOVA MRI system (Fremont, Calif.) equipped with a 28 mm inner diameter quadrature birdcage coil. Mice were anesthetized with isoflurane inhalation anesthesia (1-1.5% in 100% O2 administered via a nose cone) and positioned in the MRI coil. Body temperature was maintained (37-38° C.) using a homeothermic warming system. After acquiring scout images, multi-slice spin-echo imaging with an echo time of 18 ms and a repetition time of 400 ms ms was performed. A 40 mm field of view with a 256×256 matrix size was used. Nine to 15 slices along the transverse, sagittal, and coronal planes were acquired in each multi-slice experiment with a slice thickness of 1 mm and the gap between slices of 0.5 mm. MRI data were processed off-line with MATLAB-based MRI analysis software.
Long-Term: Sterile solutions of 100 μM compound (2) (pH ˜6.4). Water bottles were autoclaved prior to filling with sterile inhibitor solutions. Water consumption was monitored every other day, with fresh inhibitor solution being administered to prevent bacterial growth. Mice were control-sacrificed and tissues (genitourinary system, liver, lungs) were collected for histology and polyamine analysis. Mass and dimensions of excised genitourinary system tumours were recorded. Sections of small intestine were also removed for toxicity analysis via H&E staining.

In series [2] the test system is FaDu xenografts. Nature of the series: FaDu xenograft studies in NOD-SCID mice. The class given is in vivo, mouse. How it is done: NOD-SCID mice (6-8 weeks old) were obtained from Jackson Laboratory (Bar Harbor, Me.). FaDu cells (10^6) were inoculated into the dorsum of the hind foot. After 5 days, mice were treated with 9 mg/kg or 21 mg/kg body weight of compound (2) in drinking water or by daily i.p. injections of 5 mg/kg body weight of compound (2). After inoculation mice were assigned to treatment or control groups (n=5). Tumor volume (V) was determined from: V=(4/3)*(22/7)*1/8*(length*width*height). Differences between treatment cohorts were determined using the Student's t test Mice were weighed every 4-5 days, monitored for hair loss, loss of appetite, vomiting and diarrhoea. Total and differential blood and bone marrow analyses were performed after treatment with compound (2).

As for `CSC[C@H]1CN(Cc2c[nH]c3c(N)ncnc23)C[C@@H]1O` [compound (2), (3R,4S)-1-[(9-deazaadenin-9-yl)methyl]-3-hydroxy-4-(methylthiomethyl)pyrrolidine], the “tumour growth and metastasis in TRAMP mice” value in series [1] (100 μM via drinking water, approximately 6-8 months) is “reduces tumour growth and metastasis”. Further, in series [1], the “prostate cancer progression in the TRAMP mouse model” value was “inhibited”. In series [2] (28 days without treatment after 28 day therapy, mice receiving the two highest doses), the “regrowth of tumor after removal of treatment” value is on record as “no regrowth of tumor”. For the same molecule, the “differences in animal weight or in total and differential blood counts between treatment and control groups” value in series [2] (NOD-SCID mice with FaDu tumors, after 28 days of therapy) was “No significant differences”. Further, the “growth of established FaDu xenografts (tumor growth)” value in series [2] (NOD-SCID mice, 9 or 21 mg/kg in drinking water or 5 mg/kg daily i.p., from day 5, versus controls) is on record as “significantly slower than in controls; also recorded: significantly delays the growth”.

Regarding `CSC[C@H]1N[C@@H](c2c[nH]c3c(N)ncnc23)C(O)C1O` (stereo partly drawn) [compound (3)], in series [1], the “prostate cancer progression in the TRAMP mouse model” value is recorded as “inhibits prostate cancer progression”.

(Values after patent US20110092521A1, “Methods of Treating Diseases Using Inhibitors of Nucleoside Phosphorylases and Nucleosidases” (priority 2006, published 2011).)
